Measured values taken from patent US20250223328A1, “TRUNCATED DOMINANT NEGATIVE CEBPB AND CEBPD PROTEINS AND METHODS OF USE FOR DECREASING VIABILITY OF NEOPLASTIC CELLS” (The Trustees of Columbia University in the City of New York, priority 2022, published 2025).

Assays:
[1] = tested on: HCT116 colon cancer cells; assay: Apoptotic nuclei in HCT116 cells transfected with DNA vectors expressing the constructs; type: cell-based
Excerpt: FIG. 1 is a graph reporting exemplary data showing 3-box dominant negative forms of CEBPD promote apoptotic death of cancer cells. Replicate cultures of HCT116 colon cancer cells were transfected with DNA vectors expressing D-mut (a control peptide containing only the leucine zipper domain of CEBPD with all leucines in position 5 (also referred to as position “d”) of the heptad repeats mutated to glycine to suppress leucine zipper binding activity), D-1234, D-123, and D-234. Three days later, transfected cells were scored for proportion with apoptotic nuclei. Data represent means±SEM (n=4). P values vs D-mut (T-test): D-1234, p=0.0005; D-123, p=0.0014; D-234, p=0.0003.
FIG. 2 is a graph reporting exemplary data showing 2-box dominant negative forms of CEBPD promote apoptotic death of cancer cells. Replicate cultures of HCT116 cells were transfected with DNA vectors expressing D-mut, D-1234, D-12, D-23, or D-34. Three days later, transfected cells were scored for proportion with apoptotic nuclei. Data represent means±SEM (n=12 from 3 independent experiments). P values vs D-mut: D-1234, p<0.0001; D-12, p=0.056; D-23, p<0.001; D-34, p=0.0008.
FIG. 12 is a graph reporting exemplary data showing D-123EWE and D-123EKE peptides promote apoptotic death of cancer cells. Replicate cultures of HCT116 cells were transfected with an empty DNA vector or DNA vectors expressing D-123, D-123EWE, or D-123EKE. Two days later, transfected cells were scored for proportion with apoptotic nuclei. Data are pooled from two independent experiments, each with n=4. Data represent means±SEM.

[2] = tested on: T98G, MDA-MB-231, A375, Shep21N, and CHLA255 cell lines; assay: Cell numbers after 6 days of peptide treatment in a panel of cancer cell lines; type: cell-based; settings: medium with 2% fetal bovine serum, five cell lines
Procedure: FIGS. 3A-3E are graphs reporting exemplary data showing truncated dominant negative forms of CEBPD reduce cancer cell numbers. Replicate cultures of T98G (FIG. 3A), MDA-MB-231 (FIG. 3B), A375 (FIG. 3C), Shep21N (FIG. 3D), and CHLA255 (FIG. 3E) cell lines were treated with CP-D-123 at the indicated concentrations for 6 days in culture medium containing 2% fetal bovine serum and then assessed for cell numbers. Values are given as means±SEM (N=3 replicate cultures).
FIGS. 4A-4E are graphs reporting exemplary data showing truncated dominant negative forms of CEBPD reduce cancer cell numbers. Replicate cultures of T98G (FIG. 4A), MDA-MB-231 (FIG. 4B), A375 (FIG. 4C), Shep21N (FIG. 4D), and CHLA255 (FIG. 4E) cell lines were treated with CP-D-123, CP-D-234, and Bpep (at 20 μM in T98G, MDA-MB-231, A375 only) at the indicated concentrations for 6 days in culture medium containing 2% fetal bovine serum and then assessed for cell numbers. Values are given as means±SEM (N=3 replicate cultures).

[3] = HCT116, two days after transfection, compared with D-123
[4] = HCT116, three days after transfection, control D-mut

Row | Substance | Proportion of transfected cells with apoptotic nuclei [1, 4] | further results
1 | ELVELEA ENEKLHQ EVEQLER (ELVELEAENEKLHQEVEQLER; SEQ ID NO: 90 - D-123EWE) [Construct D-123EWE] | – | Proportion of transfected cells with apoptotic nuclei [1, 3]: activity comparable or greater to that of the D-123 peptide
2 | ELVELEA KNEKLKQ EVEQLER (ELVELEAKNEKLKQEVEQLER; SEQ ID NO: 100 - D-123EKE) [Construct D-123EKE] | – | Proportion of transfected cells with apoptotic nuclei [1, 3]: activity comparable or greater to that of the D-123 peptide
3 | ENEKLHQRVEQLTR (SEQ ID NO: 56 - D-23) [Construct D-23] | active in causing apoptosis | –
4 | ENEKLHQRVEQLTRDLAGLRQ (SEQ ID NO: 52 - D-234) [Construct D-234] | comparable rates to the full length D-1234 construct | –
5 | KLVELSAENEKLHQ (SEQ ID NO: 54 - D-12) [Construct D-12] | active in causing apoptosis | –
6 | KLVELSAENEKLHQRVEQLTR (SEQ ID NO: 50 - D-123) [Construct D-123] | comparable rates to the full length D-1234 construct | –
7 | RQIKIWFQNRRMKWKKENEKLHQRVEQLTRDLAGLRQ (SEQ ID NO: 53 - CP-D-234) | – | Reduction of cell numbers [2]: lower and less consistent in activity than CP-D-123
8 | RVEQLTRDLAGLRQ (SEQ ID NO: 58 - D-34) [Construct D-34] | active in causing apoptosis | –
